One test deals with EGFR wt. (Homo sapiens (Human), UniProt P00533). In words: HTRF enzyme assay, wild-type EGFR. The test is classed as biochemical. Particulars: recombinant enzyme. The protocol: (§1) The measurement of an activity on wild-type and EGFR mutation enzyme of the compound of the present invention was experimented by utilizing the HTRF system sold by Cisbio, as follow.
(§2) The composition of the assay buffer used in the activity measurement was 50 mM Tris-HCl pH 7.5, 100 mM NaCl, 7.5 mM MgCl2, 3 mM KCl, 0.01% Tween 20, 0.1% BSA, 1 mM DTT. The enzymatic reaction was carried out hereto by using the peptide substrate labeled with ATP of […] concentration and biotin of […] concentration. The analysis of an EGFR activity inhibitory effect of the compound was carried out in accordance with the analysis reaction recipe below.
(§3) Component 1: […] of EGFR wild-type or mutation enzyme
(§4) Component 2: […] of compound solution
(§5) Component 3: […] of peptide labeled with ATP and biotin
(§6) The enzymatic reaction was initiated by mixing Component 1 and Component 2 first, and then, adding component 3. After the reaction for 2 hours at 37° C., […] of a measurement solution consisting of streptavidin-XL665 provided by Cisbio and anti-phosphotyrosine antibody labeled with europium was added to the enzymatic reaction solution and reacted for 1 hour at ambient temperature. […] The measurement values measured at the seven concentrations of the compound were analyzed by using the Prism program (version 5.01, Graphpad Software, Inc.), and IC50 value of the compound was calculated, which is an inhibitory ability indicator.
In general terms: In TR-FRET formats the signal depends on donor and acceptor labels being close together.

A further test deals with EGFR del19 (Homo sapiens (Human), UniProt P00533, DEL746-750). In words: HTRF enzyme assay, EGFR del19. The test is classed as biochemical. To be noted: recombinant enzyme. The protocol: as §1, §2, §3, §4, §5, §6
Another test concerns the target EGFR del19/T790M (Homo sapiens (Human), UniProt P00533, DEL746-750/T790M). In words: HTRF enzyme assay, EGFR del19/T790M. The class given is biochemical. To be noted: recombinant enzyme. The protocol:
as §1, §2, §3, §4, §5, §6

In a further test the target is EGFR del19/T790M/C797S (Homo sapiens, UniProt P00533, C797S/DEL746-750/T790M). In words: HTRF enzyme assay, EGFR del19/T790M/C797S. The test is classed as biochemical. Particulars: HTRF, recombinant enzyme; read-out: EGFR del19/T790M/C797S IC50. The protocol: as §1, §2, §3, §4, §5, §6
A further test deals with Ba/F3 EGFR wt. cell line. In words: CellTiter-Glo cell viability, Ba/F3 EGFR wild-type. The class given is cell-based. Particulars: 72 hours. The protocol: (§7) The measurement of an activity on wild-type and mutation Ba/F3 EGFR cell line of the compound of the present invention was experimented by utilizing the CellTiter-Glo system sold by Promega, as follow. The CellTiter-Glo assay is a method for measuring the ATP present in cells in cell culture conditions to determine the cell viability.
(§8) The analysis of an EGFR inhibitory ability effect of the compound was carried out in accordance with the analysis reaction recipe below.
(§9) After the reaction of 72 hours, the plate treated with the compound was allowed to stand for 30 minutes at ambient temperature, and then, was further treated with 100 μl of the reagent, and was shaked for 10 minutes at ambient temperature. […] The measurement values measured at the eight concentrations of the compound were analyzed by using the Prism program (version 5.01, Graphpad Software, Inc.), and IC50 value of the compound was calculated, which is an inhibitory ability indicator.
In general terms: Cellular ATP, detected with luciferase, serves as a proxy for viable cell number.

The test system of test [1] is Ba/F3 EGFR del19 cell line. In words: CellTiter-Glo cell viability, Ba/F3 EGFR del19. The class given is cell-based. Particulars: 72 hours. The protocol: as §7, §8, §9
Test [2] relates to Ba/F3 EGFR del19/T790M cell line. In words: CellTiter-Glo cell viability, Ba/F3 EGFR del19/T790M. Particulars: CellTiter-Glo, 72 hours, read-out: Ba/F3 EGFR del19/T790M IC50. The class given is cell-based. The protocol: as §7, §8
(§10) After the reaction of 72 hours, the plate treated with the compound was allowed to stand for 30 minutes at ambient temperature, and then, was further treated with 100 μl of the reagent, and was shaked for 10 minutes at ambient temperature.

Test [3] relates to Ba/F3 EGFR del19/T790M/C797S cell line. In words: CellTiter-Glo cell viability, Ba/F3 EGFR del19/T790M/C797S. The test is classed as cell-based. To be noted: CellTiter-Glo, 72 hours, read-out: Ba/F3 EGFR del19/T790M/C797S IC50. The protocol:
as §7, §8, §10

Where only a bound is given, the exact number is not on record here.

EGFR del19/T790M/C797S, sequence (P00533 with tags, fused parts or gaps C797S/DEL746-750/T790M limits assumed): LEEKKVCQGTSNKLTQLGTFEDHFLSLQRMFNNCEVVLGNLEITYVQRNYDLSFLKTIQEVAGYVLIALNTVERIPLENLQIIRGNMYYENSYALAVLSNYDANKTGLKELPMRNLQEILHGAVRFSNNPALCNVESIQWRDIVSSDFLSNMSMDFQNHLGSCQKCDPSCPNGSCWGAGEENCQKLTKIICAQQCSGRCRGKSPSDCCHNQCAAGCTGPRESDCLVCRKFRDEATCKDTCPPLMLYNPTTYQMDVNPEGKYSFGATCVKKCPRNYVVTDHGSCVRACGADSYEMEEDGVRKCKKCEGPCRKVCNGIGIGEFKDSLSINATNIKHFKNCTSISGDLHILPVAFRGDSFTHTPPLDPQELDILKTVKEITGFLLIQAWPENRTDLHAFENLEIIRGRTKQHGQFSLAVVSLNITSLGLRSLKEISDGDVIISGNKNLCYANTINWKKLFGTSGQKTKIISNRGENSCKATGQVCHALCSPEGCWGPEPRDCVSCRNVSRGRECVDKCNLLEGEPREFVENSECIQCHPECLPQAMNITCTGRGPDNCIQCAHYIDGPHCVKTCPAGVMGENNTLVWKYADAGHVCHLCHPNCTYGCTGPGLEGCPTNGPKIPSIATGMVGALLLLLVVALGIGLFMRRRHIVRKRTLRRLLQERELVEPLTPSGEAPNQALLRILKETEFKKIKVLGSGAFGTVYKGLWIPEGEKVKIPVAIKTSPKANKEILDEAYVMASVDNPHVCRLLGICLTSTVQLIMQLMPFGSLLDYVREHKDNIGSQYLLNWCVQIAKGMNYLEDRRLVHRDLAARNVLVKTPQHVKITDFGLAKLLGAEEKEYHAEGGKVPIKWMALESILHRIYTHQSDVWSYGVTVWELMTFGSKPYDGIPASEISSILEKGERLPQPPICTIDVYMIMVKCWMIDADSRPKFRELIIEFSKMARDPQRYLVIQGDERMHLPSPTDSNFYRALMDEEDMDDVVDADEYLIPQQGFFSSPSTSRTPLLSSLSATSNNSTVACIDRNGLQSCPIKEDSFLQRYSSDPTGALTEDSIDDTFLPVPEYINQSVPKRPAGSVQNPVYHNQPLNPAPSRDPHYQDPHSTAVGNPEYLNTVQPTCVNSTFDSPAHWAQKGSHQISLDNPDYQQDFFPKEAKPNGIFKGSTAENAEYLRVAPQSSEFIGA
EGFR del19/T790M, sequence (P00533 other isoform, or with tags, fused parts or gaps T790M/del 1-668/del 746-750 limits assumed): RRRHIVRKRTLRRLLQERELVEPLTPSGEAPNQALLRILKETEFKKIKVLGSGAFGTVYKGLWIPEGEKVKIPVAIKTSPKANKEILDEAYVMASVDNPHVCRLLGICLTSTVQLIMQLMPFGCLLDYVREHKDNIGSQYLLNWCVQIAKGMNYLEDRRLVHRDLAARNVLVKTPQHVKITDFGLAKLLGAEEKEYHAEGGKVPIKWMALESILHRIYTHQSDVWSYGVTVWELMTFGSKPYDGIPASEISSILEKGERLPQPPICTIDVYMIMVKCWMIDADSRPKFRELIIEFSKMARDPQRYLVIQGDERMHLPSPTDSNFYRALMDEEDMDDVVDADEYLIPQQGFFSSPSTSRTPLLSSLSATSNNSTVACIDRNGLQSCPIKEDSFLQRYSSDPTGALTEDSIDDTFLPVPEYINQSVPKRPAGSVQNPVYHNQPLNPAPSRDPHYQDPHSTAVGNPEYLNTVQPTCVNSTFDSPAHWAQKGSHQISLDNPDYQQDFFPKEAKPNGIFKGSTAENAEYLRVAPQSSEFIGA
EGFR del19, sequence (P00533 other isoform, or with tags, fused parts or gaps del 1-668/del 746-750 limits assumed): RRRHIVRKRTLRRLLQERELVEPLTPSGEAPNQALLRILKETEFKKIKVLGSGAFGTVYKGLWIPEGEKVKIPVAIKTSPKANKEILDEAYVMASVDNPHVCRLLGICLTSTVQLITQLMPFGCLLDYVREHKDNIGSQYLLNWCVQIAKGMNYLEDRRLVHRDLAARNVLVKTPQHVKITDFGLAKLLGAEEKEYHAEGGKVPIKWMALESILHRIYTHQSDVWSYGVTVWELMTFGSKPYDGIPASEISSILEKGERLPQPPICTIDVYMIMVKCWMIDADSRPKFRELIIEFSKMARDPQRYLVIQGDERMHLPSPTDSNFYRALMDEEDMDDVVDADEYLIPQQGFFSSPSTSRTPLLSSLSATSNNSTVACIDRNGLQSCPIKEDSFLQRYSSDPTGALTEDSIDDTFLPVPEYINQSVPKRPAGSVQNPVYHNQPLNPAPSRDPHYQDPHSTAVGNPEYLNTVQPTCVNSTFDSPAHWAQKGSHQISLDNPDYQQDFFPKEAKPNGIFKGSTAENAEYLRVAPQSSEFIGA
EGFR wt., sequence (P00533 25-1210): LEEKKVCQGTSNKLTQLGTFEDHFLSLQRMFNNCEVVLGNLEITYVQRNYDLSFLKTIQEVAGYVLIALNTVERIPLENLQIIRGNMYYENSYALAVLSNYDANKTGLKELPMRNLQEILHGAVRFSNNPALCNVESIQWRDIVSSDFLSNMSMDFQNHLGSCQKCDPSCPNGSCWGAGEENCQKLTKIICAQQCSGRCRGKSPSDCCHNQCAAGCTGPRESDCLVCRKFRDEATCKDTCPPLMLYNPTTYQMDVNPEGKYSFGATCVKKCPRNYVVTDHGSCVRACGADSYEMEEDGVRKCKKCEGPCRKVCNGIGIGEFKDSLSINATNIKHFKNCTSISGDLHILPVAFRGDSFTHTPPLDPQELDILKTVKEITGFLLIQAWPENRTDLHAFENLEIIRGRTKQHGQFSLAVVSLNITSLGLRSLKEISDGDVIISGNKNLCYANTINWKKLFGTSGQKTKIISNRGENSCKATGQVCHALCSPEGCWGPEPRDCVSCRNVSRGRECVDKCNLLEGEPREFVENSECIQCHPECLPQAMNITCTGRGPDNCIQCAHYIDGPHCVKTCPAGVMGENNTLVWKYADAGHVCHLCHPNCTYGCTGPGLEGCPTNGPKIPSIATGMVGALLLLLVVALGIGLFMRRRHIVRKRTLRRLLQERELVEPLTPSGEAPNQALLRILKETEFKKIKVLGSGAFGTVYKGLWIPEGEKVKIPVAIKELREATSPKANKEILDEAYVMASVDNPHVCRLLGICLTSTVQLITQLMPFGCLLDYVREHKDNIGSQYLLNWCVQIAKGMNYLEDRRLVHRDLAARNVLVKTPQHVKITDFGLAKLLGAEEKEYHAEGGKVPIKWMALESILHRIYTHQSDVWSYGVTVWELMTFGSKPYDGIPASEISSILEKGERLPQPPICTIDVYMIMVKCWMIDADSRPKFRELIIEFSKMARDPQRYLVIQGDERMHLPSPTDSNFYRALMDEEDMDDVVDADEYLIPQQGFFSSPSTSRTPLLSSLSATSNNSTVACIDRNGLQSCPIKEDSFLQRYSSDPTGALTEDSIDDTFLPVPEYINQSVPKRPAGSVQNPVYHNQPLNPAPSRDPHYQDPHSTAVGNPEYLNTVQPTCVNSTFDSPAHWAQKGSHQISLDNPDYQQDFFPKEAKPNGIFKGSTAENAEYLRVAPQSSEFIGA

With `COc1cc(N2CCOCC2)ccc1Nc1ncc(Cl)c(Nc2ccccc2NS(C)(=O)=O)n1` [Example 32, N-(2-((5-chloro-2-((2-methoxy-4-morpholinophenyl)amino)pyrimidin-4-yl)amino)phenyl)methanesulfonamide], the IC50 at EGFR wt. is 1300 nM; on EGFR del19 it was 4 nM; at EGFR del19/T790M, 160 nM; at EGFR del19/T790M/C797S, 14 nM; in the test with Ba/F3 EGFR wt. cell line, 8000 nM; in test [1], 1900 nM. The IC50 in test [2] was 1300 nM; in test [3], 3300 nM.

Consider `COc1cc(C2CCN(C3CCN(C(C)=O)CC3)CC2)ccc1Nc1ncc(Cl)c(Nc2ccccc2NS(C)(=O)=O)n1` [Example 18, N-(2-((2-((4-(1′-acetyl-[1,4′-bipiperidin]-4-yl)-2-methoxyphenyl)amino)-5-chloropyrimidin-4-yl)amino)phenyl)methanesulfonamide], for which the IC50 on EGFR wt. was found to be 970 nM; on EGFR del19, 13 nM; at EGFR del19/T790M it was 92 nM; on EGFR del19/T790M/C797S, 30 nM; in the test on Ba/F3 EGFR wt. cell line, 4400 nM; in test [1] it was 2700 nM. In addition, the figures for the IC50 in test [2] and in test [3] were 1400 nM and 2000 nM, respectively.

Turning to `COc1cc(C2CCNCC2)ccc1Nc1ncc(C(F)(F)F)c(Nc2ccccc2NS(C)(=O)=O)n1` [Example 5, N-(2-((2-((2-methoxy-4-(piperidin-4-yl)phenyl)amino)-5-(trifluoromethyl)pyrimidin-4-yl)amino)phenyl)methanesulfonamide], the IC50 at EGFR wt. worked out at 4300 nM; at EGFR del19, 33 nM; at EGFR del19/T790M, 13 nM; at EGFR del19/T790M/C797S, 14 nM; with Ba/F3 EGFR wt. cell line, 2400 nM; in test [1] it was 260 nM. The IC50 worked out at 570 nM in test [2] and 790 nM in test [3].

On to `COc1cc(N2CCN(C)CC2)ccc1Nc1ncc(Cl)c(Nc2ccccc2NS(C)(=O)=O)n1` [Example 28, N-(2-((5-chloro-2-((2-methoxy-4-(4-methylpiperazin-1-yl)phenyl)amino)pyrimidin-4-yl)amino)phenyl)methanesulfonamide], for which the IC50 at EGFR wt. turned out to be 640 nM; on EGFR del19 it was 0.9 nM; at EGFR del19/T790M, 27 nM; on EGFR del19/T790M/C797S it was 9 nM; in the test with Ba/F3 EGFR wt. cell line, 1400 nM; in test [1], 1400 nM. In addition, the IC50 in test [2] came out at 690 nM; in test [3], 1700 nM.

Regarding `COc1cc(C2CCNCC2)c(C)cc1Nc1ncc(Cl)c(Nc2ccccc2NS(C)(=O)=O)n1` [Example 2, N-(2-((5-chloro-2-((2-methoxy-5-methyl-4-(piperidin-4-yl)phenyl)amino)pyrimidin-4-yl)amino)phenyl)methanesulfonamide], the IC50 on EGFR wt. amounted to 730 nM; at EGFR del19, 12 nM; at EGFR del19/T790M it was 12 nM; at EGFR del19/T790M/C797S it was 3 nM; with Ba/F3 EGFR wt. cell line, 2800 nM; in test [1], 3800 nM. Besides, the IC50 came out at 1800 nM in test [2] and 2400 nM in test [3].

With `COc1cc(C2CCN(C3CCNCC3)CC2)ccc1Nc1ncc(Cl)c(Nc2ccccc2NS(C)(=O)=O)n1` [Example 16, N-(2-((2-((4-([1,4′-bipiperidin]-4-yl)-2-methoxyphenyl)amino)-5-chloropyrimidin-4-yl)amino)phenyl)methanesulfonamide], the IC50 on EGFR wt. was 5400 nM; on EGFR del19, 44 nM; on EGFR del19/T790M it was 340 nM; on EGFR del19/T790M/C797S, 23 nM; in the test with Ba/F3 EGFR wt. cell line, over 10000 nM; in test [1], over 10000 nM. Further, the IC50 in test [2] was 2300 nM; in test [3] it was over 10000 nM.

`COc1cc(C2CCNCC2)ccc1Nc1ncc(Br)c(Nc2ccccc2NS(C)(=O)=O)n1` [Example 3, N-(2-((5-bromo-2-((2-methoxy-4-(piperidin-4-yl)phenyl)amino)pyrimidin-4-yl)amino)phenyl)methanesulfonamide]: the IC50 on EGFR wt. was determined as 840 nM; on EGFR del19 it was 18 nM; on EGFR del19/T790M it was 5 nM; at EGFR del19/T790M/C797S, 2 nM; in the test on Ba/F3 EGFR wt. cell line, 4100 nM; in test [1], 1000 nM. Moreover, the IC50 in test [2] turned out to be 1200 nM; in test [3], 1600 nM.

For `COc1cc(C2CCN(C3CCN(C)CC3)CC2)ccc1Nc1ncc(Cl)c(Nc2ccccc2NS(C)(=O)=O)n1` [Example 17, N-(2-((5-chloro-2-((2-methoxy-4-(1′-methyl-[1,4′-bipiperidin]-4-yl)phenyl)amino)pyrimidin-4-yl)amino)phenyl)methanesulfonamide], the IC50 on EGFR wt. came out at 600 nM; at EGFR del19, 4 nM; on EGFR del19/T790M it was 78 nM; on EGFR del19/T790M/C797S, 12 nM; with Ba/F3 EGFR wt. cell line, 2100 nM; in test [1], 2200 nM. Moreover, the results for the IC50 in test [2] and in test [3] were 1700 nM and 680 nM, respectively.

For the compound `COc1cc(C2CCNCC2)ccc1Nc1ncc(Cl)c(Nc2ccccc2NS(N)(=O)=O)n1` [Example 6, 4-(4-((5-chloro-4-((2-(sulfamoylamino)phenyl)amino)pyrimidin-2-yl)amino)-3-methoxyphenyl)piperidine], the IC50 at EGFR wt. was 390 nM; on EGFR del19, 26 nM; at EGFR del19/T790M it was 10 nM; on EGFR del19/T790M/C797S it was 11 nM; in the test on Ba/F3 EGFR wt. cell line, over 15000 nM; in test [1] it was 6400 nM. Moreover, the values for the IC50 in test [2] and in test [3] were 9000 nM and 5800 nM, respectively.

Take `COc1cc(N2CCNCC2)ccc1Nc1ncc(Cl)c(Nc2ccccc2NS(N)(=O)=O)n1` [Example 29, 4-(4-((5-chloro-4-((2-(sulfamoylamino)phenyl)amino)pyrimidin-2-yl)amino)-3-methoxyphenyl)piperazine]: the IC50 at EGFR wt. was found to be 1200 nM; on EGFR del19, 5 nM; at EGFR del19/T790M it was 4 nM; on EGFR del19/T790M/C797S it was 7 nM; in the test with Ba/F3 EGFR wt. cell line, 2800 nM; in test [1], 1900 nM. Also, the IC50 in test [2] was 2100 nM; in test [3] it was 2900 nM.

For the compound `COc1cc(N2CCNCC2)ccc1Nc1ncc(Br)c(Nc2ccccc2NS(N)(=O)=O)n1` [Example 30, 4-(4-((5-bromo-4-((2-(sulfamoylamino)phenyl)amino)pyrimidin-2-yl)amino)-3-methoxyphenyl)piperazine], the IC50 came out at 1800 nM at EGFR wt.; 24 nM at EGFR del19; 34 nM on EGFR del19/T790M; 3 nM on EGFR del19/T790M/C797S; 5400 nM with Ba/F3 EGFR wt. cell line; 680 nM in test [1]. Also, the IC50 worked out at 850 nM in test [2] and 2700 nM in test [3].

As to `COc1cc(C2CCN(C)CC2)ccc1Nc1ncc(Cl)c(Nc2ccccc2NS(C)(=O)=O)n1` [Example 12, N-(2-((5-chloro-2-((2-methoxy-4-(1-methylpiperidin-4-yl)phenyl)amino)pyrimidin-4-yl)amino)phenyl)methanesulfonamide], the IC50 on EGFR wt. is 1200 nM; at EGFR del19, 22 nM; at EGFR del19/T790M, 130 nM; at EGFR del19/T790M/C797S it was 2 nM; with Ba/F3 EGFR wt. cell line, 320 nM; in test [1], 330 nM. The figures for the IC50 in test [2] and in test [3] were 380 nM and 80 nM, respectively.

Regarding `COc1cc(N2CCC(N3CCNCC3)CC2)ccc1Nc1ncc(Cl)c(Nc2ccccc2NS(C)(=O)=O)n1` [Example 21, N-(2-((5-chloro-2-((2-methoxy-4-(4-(piperazin-1-yl)piperidin-1-yl)phenyl)amino)pyrimidin-4-yl)amino)phenyl)methanesulfonamide], the IC50 at EGFR wt. was 160 nM; at EGFR del19 it was 0.1 nM; on EGFR del19/T790M, 14 nM; at EGFR del19/T790M/C797S, 5 nM; in the test with Ba/F3 EGFR wt. cell line it was 2200 nM; in test [1], 3600 nM. For the same compound, the values for the IC50 in test [2] and in test [3] were 550 nM and 1700 nM, respectively.

Source of the values: patent publication US11253516B2, “N2,N4-diphenylpyrimidine-2,4-diamine derivative, method for preparing same, and pharmaceutical composition containing same as active ingredient for prevention or treatment of cancer” (Korea Research Institute of Chemical Technology, priority 2017, dated 2022).
